This is an account of results in article PMC12697865, “ZFPL1 Promotes Colorectal Cancer Progression by Stabilizing ASS1 to Drive the Urea Cycle and M2 Macrophage‐Mediated Metastatic Colonization” (Advanced Science, 2025).

What is called Kd is the equilibrium constant for the complex coming apart. Lower therefore signals tighter binding.

The target of this assay is T1, zinc finger protein-like 1 (ZFPL1) (Homo sapiens, UniProt O95159).
T1 sequence (O95159 1-310): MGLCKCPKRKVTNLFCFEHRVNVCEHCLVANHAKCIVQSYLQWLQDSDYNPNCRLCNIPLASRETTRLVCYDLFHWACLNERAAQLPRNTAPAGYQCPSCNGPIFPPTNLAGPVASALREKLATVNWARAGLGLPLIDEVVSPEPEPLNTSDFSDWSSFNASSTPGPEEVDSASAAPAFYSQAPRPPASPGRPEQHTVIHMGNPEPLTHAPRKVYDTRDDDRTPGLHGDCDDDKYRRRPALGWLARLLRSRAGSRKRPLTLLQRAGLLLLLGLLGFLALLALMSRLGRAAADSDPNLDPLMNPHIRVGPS
As to the kind of experiment: microscale thermophoresis (MST) with fluorescently labelled ZFPL1. The class given is binding.

`O=C(/C=C/c1ccc(O)c2c1[C@H](C(=O)O[C@H](Cc1ccc(O)c(O)c1)C(=O)O)[C@@H](c1ccc(O)c(O)c1)O2)O[C@H](Cc1ccc(O)c(O)c1)C(=O)O` [Salvianolic acid B] came in with a Kd of 8.52 µM.
